Assays:
[1] = test system: VSVG-pseudotyped pNL4-3.Luc.R-E-(HIV-1 Luc) virus; assay: One round of HIV-1-Luc replication in CEM cells (luciferase activity); format: cell-based; conditions: for IC50: Human immunodeficiency virus 1, CCRF-CEM, CEM cells infected about 18 h, treated about 24 h at about 37° C., FIG. 2, read-out: IC50 for inhibition of HIV-1 replication; for inhibition of HIV-1 replication compared with Bp4eT: CEM cells infected 18 h, treated 24 h at 37° C., FIG. 8
CEM cells = assay: Toxicity of iron chelators in CEM cells (calcein-AM fluorescence); format: cell-based, human; conditions: about 24 h at about 37° C., micromolar concentrations, FIG. 3
IkB gene = assay: Induction of IkB gene expression in 293T cells (real-time PCR); format: cell-based, human; conditions: about 24 hours of treatment, DDCt vs DMSO, FIG. 5
heme oxygenase-1 gene = assay: Induction of heme oxygenase-1 expression in THP-1 cells (real-time PCR); format: cell-based, human; conditions: about 24 hours of treatment, DDCt, hemin at 100 μM, FIG. 6
[2] = test system: cellular iron in THP-1 cells; assay: Cellular iron chelation in THP-1 cells (calcein fluorescence); format: cell-based, human; conditions: THP-1 cells treated with FeS, loaded with calcein-AM, versus control SIH compound, FIG. 4
Method: To assess iron chelating efficiency, human acute monocytic leukemia cell line (THP-1) cells were untreated (control) or treated with FeS for about 1 hr at about 37° C., and then loaded with iron sensor, calcein-AM for about 10 min at about 37° C. After washing with phosphate buffer solution (PBS), cells were treated with various iron chelators. In Figure. 4, calcein fluorescence was measured in a real-time PCR machine as a function of time. Fractional fluorescence (F-Fi)/Fi is proportional to the amount of chelatable iron.

Compound	IC50 [1] [nM]	toxicity (CEM cells)	expression of IkB (IkB gene)	expression of heme oxygenase-1 (HO-1) (heme oxygenase-1 gene)	iron chelating efficiency (fractional calcein fluorescence) [2]	inhibition of HIV-1 replication compared with Bp4eT [1]
CCNC(=S)N/N=C(\c1ccccc1)c1ccccn1 [Bp4-eT, reference compound]	7.5	–	–	–	–	–
O=C(Cc1ccccc1)c1ccccn1 [PPY, 2-phenyl-1-pyridin-2yl-ethanone, reference compound]	–	Neither PPY, nor representative PpYeT and PpYaT compounds show significant toxicity	–	–	–	–
C=CCNC(=S)N/N=C(\Cc1ccccc1)c1ccccn1 [PpYaT]	14	Neither PPY, nor representative PpYeT and PpYaT compounds show significant toxicity	induce expression of IkB	induce expression of heme oxygenase-1 (HO-1)	better than the control SIH compound	inhibit HIV-1 replication comparable to the effect of previously studied Bp4eT chelator
CCNC(=S)N/N=C(\Cc1ccccc1)c1ccccn1 [PpYeT]	14	Neither PPY, nor representative PpYeT and PpYaT compounds show significant toxicity	induce expression of IkB	induce expression of heme oxygenase-1 (HO-1)	better than the control SIH compound	inhibit HIV-1 replication comparable to the effect of previously studied Bp4eT chelator
hemin [reference compound]	–	–	–	induced expression of HO-1	–	–

— US20150119429A1, “Iron Chelators as HIV-1 Inhibitors” (Howard University, priority 2012, published 2015)
